Results from patent publication US7713994B2 (Wyeth LLC, priority 2005, dated 2010).
Like-named read-outs stand apart in the source and are kept apart here.

How the values were obtained:
[1] = tested on: MCF-7; assay: Cytotoxicity assay (SRB), MCF-7; assay type: cell-based; details: MCF-7 cells, SRB, read-out: In Vitro Cellular Activity IC50 MCF-7
How it was run: (§1)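 Cells seeded overnight at 37 °C, 7% CO2 (BT474 12000, HCT-116 4000, LoVo and MCF-7 6000 cells/well) in RPMI 1640 with 5% FBS, then exposed to compound dilutions for 3 days (BT474 6 days). Survival versus untreated controls by TCA fixation and SRB staining, absorbance 540 nm.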

[2] = tested on: HCT-116; assay: Cytotoxicity assay (SRB), HCT-116; assay type: cell-based; details: HCT116 cells, SRB, read-out: In Vitro Cellular Activity IC50 HCT116
How it was run: as §1

[3] = target: T1, cyclin D1/cdk 4 enzyme (Homo sapiens, UniProt P11802); assay: CDK4 ELISA kinase assay (phospho-Rb ser 795 detection); assay type: biochemical
T1 construct: made in house; host or cells: Sf9 insect cells, recombinant baculovirus
How it was run: (§2)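 Sf9-derived cyclin/CDK, 200 μM ATP, immobilized GST-Rb; 30° C/1 h. Detection: phospho-Ser795 Ab, HRP, TMB, OD450.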

[4] = tested on: LoVo; assay: Cytotoxicity assay (SRB), LoVo; assay type: cell-based; details: LoVo cells, SRB, read-out: In Vitro Cellular Activity IC50 LOVO
How it was run: as §1

[5] = target: T2, cyclin E/CDK2 enzyme (Homo sapiens, UniProt P24941); assay: CDK2 ELISA kinase assay (phospho-Rb ser 795 detection); assay type: biochemical
T2 construct: made in house; host or cells: Sf9 insect cells, recombinant baculovirus
How it was run: as §2

[6] = tested on: BT474; assay: Cytotoxicity assay (SRB), BT474; assay type: cell-based
How it was run: as §1

[7] = target: T3, cyclin B/CDK1 enzyme (Homo sapiens, UniProt P06493); assay: CDK1 ELISA kinase assay (phospho-Rb ser 795 detection); assay type: biochemical
T3 construct: purchased New England BioLabs; host or cells: Sf9 insect cells, recombinant baculovirus
How it was run: as §2

[8] = Homo sapiens, MCF7, 72 h, three days
[9] = Homo sapiens, HCT-116, 72 h, three days
[10] = In Vitro Enzyme Assays, 200 μM ATP, read-out: CDK4 IC50
[11] = Homo sapiens, LoVo, 72 h, three days
[12] = In Vitro Enzyme Assays, read-out: CDK2 IC50
[13] = Homo sapiens, BT-474, 144 h, BT474 cells, SRB, 6 days; read-out: In Vitro Cellular Activity IC50 BT474
[14] = In Vitro Enzyme Assays, read-out: CDK1 IC50
[15] = Homo sapiens, MCF7, 72 h, 3 days
[16] = Homo sapiens, HCT-116, 72 h, 3 days
[17] = In Vitro Enzyme Assay, cyclin D1/cdk 4, read-out: CDK4 IC50
[18] = Homo sapiens, LoVo, 72 h, 3 days
[19] = In Vitro Enzyme Assay, cyclin E/CDK2, read-out: CDK2 IC50
[20] = Homo sapiens, BT-474, 144 h, BT474 cells, 6 days, SRB; read-out: In Vitro Cellular Activity IC50 BT474
[21] = In Vitro Enzyme Assay, cyclin B/CDK1, read-out: CDK1 IC50

T1 sequence (P11802 whole entry, species assumed): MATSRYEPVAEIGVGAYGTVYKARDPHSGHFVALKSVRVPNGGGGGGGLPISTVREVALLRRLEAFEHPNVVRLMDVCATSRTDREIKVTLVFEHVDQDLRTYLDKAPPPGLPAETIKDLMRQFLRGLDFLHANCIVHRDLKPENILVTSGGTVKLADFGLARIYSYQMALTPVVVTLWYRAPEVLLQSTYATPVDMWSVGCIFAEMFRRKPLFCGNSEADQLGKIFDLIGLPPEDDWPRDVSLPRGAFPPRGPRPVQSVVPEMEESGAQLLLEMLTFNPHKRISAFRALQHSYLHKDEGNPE
T1 sequence (P24385 whole entry partner, species assumed): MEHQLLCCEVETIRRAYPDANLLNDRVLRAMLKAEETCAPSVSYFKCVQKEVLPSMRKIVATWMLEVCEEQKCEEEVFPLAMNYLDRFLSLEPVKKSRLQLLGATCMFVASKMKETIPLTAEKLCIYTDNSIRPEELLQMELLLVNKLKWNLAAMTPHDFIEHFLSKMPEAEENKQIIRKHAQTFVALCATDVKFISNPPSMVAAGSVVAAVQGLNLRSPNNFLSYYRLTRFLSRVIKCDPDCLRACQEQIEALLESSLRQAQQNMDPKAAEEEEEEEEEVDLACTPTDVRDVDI
T3 sequence (P06493 whole entry): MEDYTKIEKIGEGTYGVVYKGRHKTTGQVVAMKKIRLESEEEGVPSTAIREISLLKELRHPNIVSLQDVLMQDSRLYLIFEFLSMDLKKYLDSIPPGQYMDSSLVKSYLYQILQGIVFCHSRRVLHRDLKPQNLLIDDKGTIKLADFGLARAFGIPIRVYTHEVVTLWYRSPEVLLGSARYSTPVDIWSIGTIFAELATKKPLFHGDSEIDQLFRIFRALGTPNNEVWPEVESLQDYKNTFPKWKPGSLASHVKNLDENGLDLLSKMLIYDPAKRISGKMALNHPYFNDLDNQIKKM
T3 sequence (P14635 whole entry partner): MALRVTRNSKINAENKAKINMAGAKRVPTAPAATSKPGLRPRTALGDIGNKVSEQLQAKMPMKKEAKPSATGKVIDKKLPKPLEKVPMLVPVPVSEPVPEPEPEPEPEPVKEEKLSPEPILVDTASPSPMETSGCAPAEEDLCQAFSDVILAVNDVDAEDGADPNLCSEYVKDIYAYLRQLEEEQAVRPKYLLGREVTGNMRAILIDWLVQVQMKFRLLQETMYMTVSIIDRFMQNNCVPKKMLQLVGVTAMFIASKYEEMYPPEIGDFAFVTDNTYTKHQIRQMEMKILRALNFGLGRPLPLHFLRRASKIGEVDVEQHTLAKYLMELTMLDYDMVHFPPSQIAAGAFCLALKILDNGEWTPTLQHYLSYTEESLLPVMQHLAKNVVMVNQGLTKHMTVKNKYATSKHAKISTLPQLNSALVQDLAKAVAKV

Row | Molecule | IC50 [3, 10] [µM] | IC50 [5, 12] [µM] | IC50 [7, 14] [µM] | IC50 [3, 17] [µM] | IC50 [5, 19] [µM] | IC50 [7, 21] [µM] | IC50 [1, 8] [µM] | IC50 [2, 9] [µM] | IC50 [4, 11] [µM] | IC50 [6, 13] [µM] | IC50 [1, 15] [µM] | IC50 [2, 16] [µM] | IC50 [4, 18] [µM] | IC50 [6, 20] [µM] | other results
1 | CN(CCO)c1ccc(N/C=C2\C(=O)NC(=O)c3ccc(Br)cc32)cc1 [Example 244, (4Z)-6-Bromo-4-[({4-[(2-hydroxyethyl)(methyl)amino]phenyl}amino)methylene]isoquinoline-1,3(2H,4H)-dione] | 45.5 | > 50 | > 50 | – | – | – | 19 | 4.9 | 15 | 9.4 | – | – | – | – | –
2 | CN1CCN(c2ccc(N/C=C3\C(=O)NC(=O)c4ccc(-c5ccc(F)cc5)cc43)cc2)CC1 [Example 263, (4Z)-6-(4-Fluorophenyl)-4-({[4-(4-methylpiperazin-1-yl)phenyl]amino}methylene)-isoquinoline-1,3(2H,4H)-dione] | 0.5 | > 50 | > 50 | – | – | – | 3.1 | 1.3 | 2.9 | 2.9 | – | – | – | – | –
3 | (4Z)-4-{[(3-Hydroxy-4-propoxybenzyl)amino]methylene}-6-thiene-3-ylisoquinoline-,3(2H,4H)-dione [Example 183] | 0.11 | > 50 | > 50 | – | – | – | – | – | – | – | – | – | – | – | IC50 ([1]; three days): 8.8 µM; IC50 ([2]; three days): 8.4 µM; IC50 ([4]; three days): 12 µM; IC50 ([6]; BT474 cells, SRB, 6 days; read-out: In Vitro Cellular Activity IC50 BT474): 13 µM
4 | CCCOc1ccc(CN/C=C2\C(=O)NC(=O)c3ccc(Br)cc32)cc1O [Example 130, (4Z)-6-Bromo-4-{[(3-hydroxy-4-propoxybenzyl)amino]methylene}isoquinoline-1,3(2H,4H)-dione] | 0.35 | 34.5 | 42.5 | – | – | – | 4 | 0.73 | 0.94 | 0.65 | – | – | – | – | –
5 | C=CC(=O)Nc1ccc2c(c1)/C(=C/Nc1ccc(N3CCN(C)CC3)cc1)C(=O)NC2=O [Example 385, N-[(4Z)-4-({[4-(4-Methylpiperazin-1-yl)phenyl]amino}methylene)-1,3-dioxo-1,2,3,4-tetrahydroisoquinolin-6-yl]acrylamide] | 14.7 | 20.7 | 11.5 | – | – | – | 1.6 | 1.4 | 3.5 | 0.39 | – | – | – | – | –
6 | O=C1NC(=O)c2ccc(-c3ccc4ccccc4c3)cc2C1=CNCc1ccc(O)c(O)c1 [Example 641, 4-[(3,4-Dihydroxy-benzylamino)-methylene]-6-naphthalen-2-yl-4H-isoquinoline-1,3-dione] | – | – | – | 1.9 | > 50 | > 50 | – | – | – | – | 9.6 | 10.5 | 9.4 | 19.7 | –
7 | CN1CCN(c2ccc(N/C=C3\C(=O)NC(=O)c4ccc(-c5ccoc5)cc43)c(F)n2)CC1 [Example 457, (4Z)-4-({[2-Fluoro-6-(4-methylpiperazin-1-yl)pyridin-3-yl]amino}methylene)-6-(3-furyl)isoquinoline-1,3(2H,4H)-dione] | – | – | – | 0.19 | 19.4 | 24.2 | – | – | – | – | – | – | – | – | IC50 ([1]; 3 days): 2.1 µM; IC50 ([2]; 3 days): 0.96 µM; IC50 ([4]; 3 days): 1 µM; IC50 ([6]; BT474 cells, 6 days, SRB; read-out: In Vitro Cellular Activity IC50 BT474): 1.6 µM
8 | NS(=O)(=O)c1ccc(CNC=C2C(=O)NC(=O)c3ccc(-c4cc[nH]c4)cc32)cc1 [Example 639, 4-({[1,3-Dioxo-6-(1H-pyrrol-3-yl)-2,3-dihydro-1H-isoquinolin-4-ylidenemethyl]-amino}-methyl)-benzenesulfonamide] | – | – | – | 9.2 | 19.7 | > 50 | – | – | – | – | 25.8 | > 50 | > 50 | 18.7 | –
9 | CCCN1CCN(c2ccc(N/C=C3\C(=O)NC(=O)c4ccc(I)cc43)cc2)CC1 [Example 388, (4Z)-6-Iodo-4-({[4-(4-propylpiperazin-1-yl)phenyl]amino}methylene)isoquinoline-1,3(2H,4H)-dione] | 2 | > 50 | > 50 | – | – | – | 3.1 | 2.7 | 5.5 | 3.9 | – | – | – | – | –
10 | O=C1NC(=O)c2ccc(Br)cc2/C1=C/NCCCN1CCOCC1 [Example 310, (Z)-6-Bromo-4-((3-morpholinopropylamino)methylene)isoquinoline-1,3(2H,4H)-dione] | 9.4 | > 50 | > 50 | – | – | – | 11 | 21 | 17 | 27 | – | – | – | – | –
11 | COc1ccc(CN/C=C2\C(=O)NC(=O)c3ccc(-c4ccsc4)cc32)cc1O [Example 88, (4Z)-4-{[(3-Hydroxy-4-methoxybenzyl)amino]methylene}-6-thien-3-ylisoquinoline-1,3(2H,4H)-dione] | 0.002 | 18.3 | 23.3 | – | – | – | 9.1 | 3.4 | 2.4 | 6 | – | – | – | – | –

The next lines start with results.

Row | IC50 [3, 10] [µM] | IC50 [5, 12] [µM] | IC50 [7, 14] [µM] | IC50 [3, 17] [µM] | IC50 [5, 19] [µM] | IC50 [7, 21] [µM] | Molecule | IC50 [1, 8] [µM] | IC50 [2, 9] [µM] | IC50 [4, 11] [µM] | IC50 [6, 13] [µM] | IC50 [1, 15] [µM] | IC50 [2, 16] [µM] | IC50 [4, 18] [µM] | IC50 [6, 20] [µM] | other results
12 | – | – | – | 0.15 | 18.9 | 46.5 | CC(=O)Nc1cccc(-c2ccc3c(c2)C(=CNCc2ccc(O)c(O)c2)C(=O)NC3=O)c1 [Example 822, N-(3-{4-[(3,4-Dihydroxy-benzylamino)-methylene]-1,3-dioxo-1,2,3,4-tetrahydro-isoquinolin-6-yl}-phenyl)-acetamide] | – | – | – | – | 16.8 | 27.2 | 47.9 | 11 | –
13 | – | – | – | 0.12 | 45.5 | > 50 | COc1ccc(CNC=C2C(=O)NC(=O)c3ccc(C=CCc4cccc(OC)c4O)cc32)cc1O [Example 827, 4-[(3-Hydroxy-4-methoxy-benzylamino)-methylene]-6-[3-(2-hydroxy-3-methoxy-phenyl)-propenyl]-4H-isoquinoline-1,3-dione] | – | – | – | – | 17.5 | 10.8 | 18.1 | 26.5 | –
14 | – | – | – | 0.31 | > 50 | > 50 | CCN(CC)CCn1ccc2cc(-c3ccc4c(c3)C(=CNc3ccc(N5CCN(C)CC5)cc3)C(=O)NC4=O)ccc21 [Example 852, 6-[1-(2-Diethylamino-ethyl)-1H-indol-5-yl]-4-{[4-(4-methyl-piperazin-1-yl)-phenylamino]-methylene}-4H-isoquinoline-1,3-dione] | – | – | – | – | 46.3 | > 50 | > 50 | > 50 | –
15 | – | – | – | 0.22 | 2.4 | 9.4 | O=C1NC(=O)c2ccc(-c3ccc(Cl)cc3Cl)cc2C1=CNCc1ccc(O)c(O)c1 [Example 823, 6-(2,4-Dichloro-phenyl)-4-[(3,4-dihydroxy-benzylamino)-methylene]-4H-isoquinoline-1,3-dione] | – | – | – | – | 14.8 | 11.9 | 12.3 | 21.4 | –
16 | – | – | – | 0.44 | 18 | > 50 | Cc1ncsc1C=Cc1ccc2c(c1)C(=CNCc1ccc(S(N)(=O)=O)cc1)C(=O)NC2=O [Example 659, 4-[({6-[2-(4-Methyl-thiazol-5-yl)-vinyl]-1,3-dioxo-2,3-dihydro-1H-isoquinolin-4-ylidenemethyl}-amino)-methyl]-benzenesulfonamide] | – | – | – | – | 40.9 | 26 | > 50 | 23.1 | –
17 | – | – | – | < 0.005 | 2.6 | 8.6 | O=C1NC(=O)c2ccc(-c3ccc[nH]3)cc2C1=CNCc1ccc(O)c(O)c1 [Example 647, 4-[(3,4-Dihydroxy-benzylamino)-methylene]-6-(1H-pyrrol-2-yl)-4H-isoquinoline-1,3-dione] | – | – | – | – | 19.5 | 15.3 | 9.5 | 18.3 | –
